Holding throughout (test): relative viability (nuclei count vs DMSO), 5 days (fraction); higher = more cells survive
Compound in the test “Trametinib + Phenformin”: CC(=O)Nc1cccc(-n2c(=O)n(C3CC3)c(=O)c3c(Nc4ccc(I)cc4F)n(C)c(=O)c(C)c32)c1 [Trametinib] + N=C(N)NC(=N)NCCc1ccccc1 [Phenformin] (partner 250 µM)
In outline:
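Relative viability divides the nuclei count in treated wells by that in vehicle wells. Lung cancer cell lines were seeded in 1536-well plates, dosed by pin tool the next day, and fixed and stained after 5 days in one step with final 0.05% Triton X-100, 1% formaldehyde and 1 ug/ml Hoechst. Dosing was a single drug or a fixed anchor-drug dose plus five library-drug doses (not always all listed) in √10 steps, and values are medians of duplicate plates imaged at 4×.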

Compound in test [1]: CN1C=C(C2=CC=CC=C21)/C=C\3/C4=C(C=CC=N4)NC3=O
In short, it runs like this:
(§1)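 After an overnight hold at 37 °C, lung cancer cell lines in 1536-well plates were pinned with five library-drug doses (not always all listed), each √10 from the next, on vehicle-anchored plates. The cells stayed 5 days without fresh medium, then a one-step fix, permeabilisation and Hoechst stain preceded 4× imaging and MetaXpress nuclear counts. A plate passed only with control CV under 25% and at least one doubling. Viability is the median, over plates, of treated-well nuclei relative to vehicle-well nuclei.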

Compound in the next test: CC(=O)Nc1cccc(-n2c(=O)n(C3CC3)c(=O)c3c(Nc4ccc(I)cc4F)n(C)c(=O)c(C)c32)c1 [Trametinib]
In outline: as §1

For NCI-H647, the relative viability in the test with Trametinib + Phenformin (first compound 0.0025 µM) came to 0.554; in the test with Trametinib + Phenformin (first compound 0.007906 µM), 0.561; in the test with Trametinib + Phenformin (first compound 0.025 µM), 0.507; with Trametinib + Phenformin (first compound 0.07906 µM), 0.333; with Trametinib + Phenformin (first compound 0.25 µM), 0.148; in test [1] (0.02 µM) it was 0.946. In addition, the relative viability was determined as 0.863 in test [1] (0.06325 µM); 0.656 in test [1] (0.2 µM); 0.784 in test [1] (0.6325 µM); 0.827 in test [1] (2 µM); 0.837 with Trametinib (0.0025 µM); 0.754 with Trametinib (0.007906 µM). The relative viability is 0.516 with Trametinib (0.02 µM, anchor plate); 0.588 with Trametinib (0.025 µM); 0.554 with Trametinib (0.07906 µM); 0.293 with Trametinib (0.25 µM).

On to NCI-H1793, for which the relative viability amounted to 0.329 with Trametinib + Phenformin (first compound 0.0025 µM); 0.314 with Trametinib + Phenformin (first compound 0.007906 µM); 0.283 with Trametinib + Phenformin (first compound 0.025 µM); 0.176 in the test with Trametinib + Phenformin (first compound 0.07906 µM); 0.219 with Trametinib + Phenformin (first compound 0.25 µM); 1.02 in test [1] (0.02 µM). For the same cell line, the relative viability in test [1] (0.06325 µM) was 1.1; in test [1] (0.2 µM), 0.737; in test [1] (0.6325 µM), 0.79; in test [1] (2 µM) it was 0.918; in the test with Trametinib (0.0025 µM) it was 0.59; with Trametinib (0.007906 µM) it was 0.611. Moreover, the relative viability was 0.429 in the test with Trametinib (0.02 µM, anchor plate); 0.298 in the test with Trametinib (0.025 µM); 0.338 with Trametinib (0.07906 µM); 0.254 in the test with Trametinib (0.25 µM).

For the cell line SK-MES-1, the relative viability with Trametinib + Phenformin (first compound 0.0025 µM) was 0.64; in the test with Trametinib + Phenformin (first compound 0.007906 µM), 0.64; with Trametinib + Phenformin (first compound 0.025 µM) it was 0.481; with Trametinib + Phenformin (first compound 0.07906 µM), 0.43; in the test with Trametinib + Phenformin (first compound 0.25 µM), 0.287; in test [1] (0.02 µM) it was 0.967. The relative viability in test [1] (0.06325 µM) worked out at 0.959; in test [1] (0.2 µM), 0.951; in test [1] (0.6325 µM), 0.929; in test [1] (2 µM), 0.967; in the test with Trametinib (0.0025 µM), 0.948; with Trametinib (0.007906 µM), 0.803. The relative viability with Trametinib (0.02 µM, anchor plate) was 0.574; in the test with Trametinib (0.025 µM), 0.621; with Trametinib (0.07906 µM), 0.485; with Trametinib (0.25 µM) it was 0.359.

Take NCI-H2087: the relative viability with Trametinib + Phenformin (first compound 0.0025 µM) is 0.294; with Trametinib + Phenformin (first compound 0.007906 µM) it was 0.258; with Trametinib + Phenformin (first compound 0.025 µM), 0.146; with Trametinib + Phenformin (first compound 0.07906 µM) it was 0.153; with Trametinib + Phenformin (first compound 0.25 µM) it was 0.111; in test [1] (0.02 µM) it was 1. In addition, the relative viability is 0.87 in test [1] (0.06325 µM); 1.05 in test [1] (0.2 µM); 0.986 in test [1] (0.6325 µM); 1.06 in test [1] (2 µM); 0.867 with Trametinib (0.0025 µM); 0.463 in the test with Trametinib (0.007906 µM). For the same cell line, the relative viability amounted to 0.217 with Trametinib (0.02 µM, anchor plate); 0.302 with Trametinib (0.025 µM); 0.179 in the test with Trametinib (0.07906 µM); 0.139 in the test with Trametinib (0.25 µM).

BEN: the relative viability in the test with Trametinib + Phenformin (first compound 0.0025 µM) is 0.264; with Trametinib + Phenformin (first compound 0.007906 µM), 0.258; with Trametinib + Phenformin (first compound 0.025 µM), 0.247; in the test with Trametinib + Phenformin (first compound 0.07906 µM), 0.278; with Trametinib + Phenformin (first compound 0.25 µM), 0.275; in test [1] (0.02 µM), 0.863. The relative viability in test [1] (0.06325 µM) came out at 0.872; in test [1] (0.2 µM), 0.701; in test [1] (0.6325 µM) it was 0.755; in test [1] (2 µM), 1.05; in the test with Trametinib (0.0025 µM), 0.953; in the test with Trametinib (0.007906 µM) it was 0.96. The relative viability with Trametinib (0.02 µM, anchor plate) came to 1.07; in the test with Trametinib (0.025 µM), 0.566; with Trametinib (0.07906 µM) it was 0.658; in the test with Trametinib (0.25 µM), 0.814.

Turning to NCI-H3122, the relative viability was found to be 0.381 with Trametinib + Phenformin (first compound 0.0025 µM); 0.296 in the test with Trametinib + Phenformin (first compound 0.007906 µM); 0.282 with Trametinib + Phenformin (first compound 0.025 µM); 0.243 with Trametinib + Phenformin (first compound 0.07906 µM); 0.233 with Trametinib + Phenformin (first compound 0.25 µM); 0.878 in test [1] (0.02 µM). For the same cell line, the relative viability in test [1] (0.06325 µM) stood at 0.938; in test [1] (0.2 µM) it was 0.897; in test [1] (0.6325 µM) it was 1.05; in test [1] (2 µM), 0.994; with Trametinib (0.0025 µM), 0.909; in the test with Trametinib (0.007906 µM), 0.701. The relative viability was found to be 0.231 with Trametinib (0.02 µM, anchor plate); 0.465 in the test with Trametinib (0.025 µM); 0.361 with Trametinib (0.07906 µM); 0.281 with Trametinib (0.25 µM).

As for LCLC-97TM1, the relative viability with Trametinib + Phenformin (first compound 0.0025 µM) was found to be 0.415; with Trametinib + Phenformin (first compound 0.007906 µM), 0.448; with Trametinib + Phenformin (first compound 0.025 µM), 0.383; in the test with Trametinib + Phenformin (first compound 0.07906 µM) it was 0.301; with Trametinib + Phenformin (first compound 0.25 µM) it was 0.288; in test [1] (0.02 µM), 0.701. Besides, the relative viability in test [1] (0.06325 µM) was found to be 0.844; in test [1] (0.2 µM), 0.717; in test [1] (0.6325 µM), 1.11; in test [1] (2 µM) it was 0.922; with Trametinib (0.0025 µM), 0.884; in the test with Trametinib (0.007906 µM), 0.836. Further, the relative viability with Trametinib (0.02 µM, anchor plate) is 0.197; in the test with Trametinib (0.025 µM), 0.398; with Trametinib (0.07906 µM), 0.204; with Trametinib (0.25 µM) it was 0.138.

On to NCI-H2228, for which the relative viability stood at 0.319 in the test with Trametinib + Phenformin (first compound 0.0025 µM); 0.225 with Trametinib + Phenformin (first compound 0.007906 µM); 0.152 with Trametinib + Phenformin (first compound 0.025 µM); 0.161 with Trametinib + Phenformin (first compound 0.07906 µM); 0.138 with Trametinib + Phenformin (first compound 0.25 µM); 1.05 in test [1] (0.02 µM). Further, the relative viability was determined as 0.856 in test [1] (0.06325 µM); 0.864 in test [1] (0.6325 µM); 1.14 in test [1] (2 µM); 0.771 with Trametinib (0.0025 µM); 0.885 with Trametinib (0.007906 µM); 0.555 in the test with Trametinib (0.02 µM, anchor plate). In addition, the relative viability worked out at 0.811 in the test with Trametinib (0.025 µM), 0.61 with Trametinib (0.07906 µM) and 0.363 with Trametinib (0.25 µM).

Regarding COR-L23, the relative viability was 0.479 with Trametinib + Phenformin (first compound 0.0025 µM); 0.437 with Trametinib + Phenformin (first compound 0.007906 µM); 0.384 with Trametinib + Phenformin (first compound 0.025 µM); 0.388 with Trametinib + Phenformin (first compound 0.07906 µM); 0.269 with Trametinib + Phenformin (first compound 0.25 µM); 0.992 in test [1] (0.02 µM). Moreover, the relative viability in test [1] (0.06325 µM) was found to be 0.994; in test [1] (0.2 µM) it was 1.09; in test [1] (0.6325 µM), 1.12; in test [1] (2 µM) it was 1; with Trametinib (0.0025 µM), 0.979; with Trametinib (0.007906 µM), 0.995. In addition, the relative viability came out at 0.593 with Trametinib (0.02 µM, anchor plate); 0.871 with Trametinib (0.025 µM); 0.849 in the test with Trametinib (0.07906 µM); 0.476 with Trametinib (0.25 µM).

The record behind these values is the supplement of paper PMC10307832.
